Data taken from ChEMBL document CHEMBL1201862, “PubChem BioAssay data set” (2004).
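Values below derive from 48-hour exposures of cells grown in 96-well plates, with endpoints linearly interpolated between the two concentrations bracketing the appropriate inhibition level. At the GI50, growth is halved.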 Active and inactive are the calls of the source. No stated cut-off is given here; in the data, active = GI50 up to about 1.1 µM and inactive = higher.

Key:
Assay in all cases: growth of human tumour cells (NCI), 48 h
A498 = test system: A498
A549 = test system: A549
BT-549 = test system: BT-549
HCC 2998 = test system: HCC 2998
K562 = test system: K562
MDA-N = test system: MDA-N
MOLT-4 = test system: MOLT-4
Malme-3M = test system: Malme-3M
NCI-H23 = test system: NCI-H23
NCI-H522 = test system: NCI-H522
PC-3 = test system: PC-3
SF-295 = test system: SF-295
SF-539 = test system: SF-539
SK-MEL-2 = test system: SK-MEL-2
SNB-19 = test system: SNB-19
SR = test system: SR
SW-620 = test system: SW-620
TK-10 = test system: TK-10
U-251 = test system: U-251
UO-31 = test system: UO-31

SMILES | GI50 (A498) | GI50 (A549) | GI50 (BT-549) | GI50 (HCC 2998) | GI50 (K562) | GI50 (MDA-N) | GI50 (MOLT-4) | GI50 (Malme-3M) | GI50 (NCI-H23) | GI50 (NCI-H522) | GI50 (PC-3) | GI50 (SF-295) | GI50 (SF-539) | GI50 (SK-MEL-2) | GI50 (SNB-19) | GI50 (SR) | GI50 (SW-620) | GI50 (TK-10) | GI50 (U-251) | GI50 (UO-31)
NC(=O)NO [HYDROXYUREA] | 693 µM (inactive) | 514 µM (inactive) | 1660 µM (inactive) | 679 µM (inactive) | 877 µM (inactive) | 1940 µM (inactive) | 222 µM (inactive) | 1170 µM (inactive) | 710 µM (inactive) | 729 µM (inactive) | 1010 µM (inactive) | 313 µM (inactive) | 315 µM (inactive) | 2000 µM (inactive) | 1580 µM (inactive) | 217 µM (inactive) | 1090 µM (inactive) | 1980 µM (inactive) | 581 µM (inactive) | 508 µM (inactive)
Cc1ccc(Nc2cc(=O)[nH]c(=O)[nH]2)cc1CS | > 100 µM (inactive) | > 100 µM (inactive) | 58.1 µM (inactive) | > 100 µM (inactive) | > 100 µM (inactive) | > 100 µM (inactive) | > 100 µM (inactive) | > 100 µM (inactive) | > 100 µM (inactive) | > 100 µM (inactive) | > 100 µM (inactive) | > 100 µM (inactive) | > 100 µM (inactive) | > 100 µM (inactive) | > 100 µM (inactive) | > 100 µM (inactive) | > 100 µM (inactive) | > 100 µM (inactive) | > 100 µM (inactive) | > 100 µM (inactive)
CC(C#N)(c1ccccc1)N(CCc1ccccc1)C(=O)Oc1ccccc1 (stereo not given) | > 100 µM (inactive) | > 100 µM (inactive) | > 100 µM (inactive) | > 100 µM (inactive) | > 100 µM (inactive) | > 100 µM (inactive) | > 100 µM (inactive) | > 100 µM (inactive) | > 100 µM (inactive) | > 100 µM (inactive) | > 100 µM (inactive) | > 100 µM (inactive) | > 100 µM (inactive) | > 100 µM (inactive) | 44.2 µM (inactive) | > 100 µM (inactive) | > 100 µM (inactive) | > 100 µM (inactive) | > 100 µM (inactive) | > 100 µM (inactive)
O=C1c2c(Br)sc(Br)c2[C@H]2NC(=S)O[C@@H]12 | 23.5 µM (inactive) | 20.8 µM (inactive) | 16.5 µM (inactive) | 20.5 µM (inactive) | 2.98 µM (inactive) | 16 µM (inactive) | 1.32 µM (inactive) | 15.7 µM (inactive) | 14.8 µM (inactive) | 1.86 µM (inactive) | 14.5 µM (inactive) | 20.6 µM (inactive) | 17.9 µM (inactive) | 17.4 µM (inactive) | 21.7 µM (inactive) | 2.41 µM (inactive) | 3.18 µM (inactive) | 29.6 µM (inactive) | 13.2 µM (inactive) | 15.3 µM (inactive)
COc1ccc2c(c1)C(=O)C(=O)c1cc(O)c(OC)c(OC)c1-2 | 4.48 µM (inactive) | 2.73 µM (inactive) | 0.718 µM (active) | 4.55 µM (inactive) | 0.838 µM (active) | 0.697 µM (active) | 0.114 µM (active) | 0.832 µM (active) | 0.889 µM (active) | 0.927 µM (active) | 1.07 µM (active) | 0.805 µM (active) | 1.85 µM (inactive) | 0.861 µM (active) | 1.01 µM (active) | 0.818 µM (active) | 1.2 µM (inactive) | 1.01 µM (active) | 0.863 µM (active) | 0.925 µM (active)
N=C(N)N/N=C/c1c(-c2ccc(Cl)cc2)nc2n1CCS2 | 12.7 µM (inactive) | 10 µM (inactive) | 14.5 µM (inactive) | 3.04 µM (inactive) | 2.98 µM (inactive) | 11 µM (inactive) | 2.68 µM (inactive) | 14.6 µM (inactive) | > 10 µM (inactive) | 12.8 µM (inactive) | 4.14 µM (inactive) | 3.53 µM (inactive) | 11.7 µM (inactive) | 10.8 µM (inactive) | 15.6 µM (inactive) | 7.16 µM (inactive) | 5.89 µM (inactive) | 15.7 µM (inactive) | 12.9 µM (inactive) | 12.7 µM (inactive)
CC1OC(OC2C[C@](O)(C(=O)CF)Cc3c(O)c4c(c(O)c32)C(=O)c2ccccc2C4=O)CC(N)C1O (stereo not given in full) | 0.233 µM (active) | < 0.01 µM (active) | 0.131 µM (active) | 0.163 µM (active) | < 0.0153 µM (active) | 0.108 µM (active) | < 0.01 µM (active) | < 0.0109 µM (active) | < 0.01 µM (active) | 0.0202 µM (active) | 0.0275 µM (active) | < 0.01 µM (active) | 0.0561 µM (active) | 0.168 µM (active) | < 0.014 µM (active) | < 0.01 µM (active) | < 0.0116 µM (active) | 0.1 µM (active) | < 0.013 µM (active) | 0.0392 µM (active)
COC(=O)/C=C\C(C#N)(C#N)/N=C/c1cc(Br)cs1 | 18.5 µM (inactive) | 18 µM (inactive) | 7.08 µM (inactive) | 16 µM (inactive) | 0.562 µM (active) | 2.67 µM (inactive) | 1.89 µM (inactive) | 1.71 µM (inactive) | 5.33 µM (inactive) | 1.5 µM (inactive) | 5.09 µM (inactive) | 17.9 µM (inactive) | 4.8 µM (inactive) | 10.6 µM (inactive) | 18.5 µM (inactive) | 2.32 µM (inactive) | 1.15 µM (inactive) | 3.11 µM (inactive) | 13.9 µM (inactive) | 2.14 µM (inactive)
C=CC/C=C/Cc1csc(C(C)(C)C(O)C/C=C/C(=C)CCNC(=O)OC)n1 (stereo not given) | > 60.5 µM (inactive) | 41.4 µM (inactive) | 3.33 µM (inactive) | > 95.3 µM (inactive) | 0.845 µM (active) | 45.8 µM (inactive) | 36.1 µM (inactive) | > 91.8 µM (inactive) | 0.245 µM (active) | 19.1 µM (inactive) | > 100 µM (inactive) | 1.28 µM (inactive) | > 100 µM (inactive) | > 100 µM (inactive) | > 100 µM (inactive) | 0.492 µM (active) | 26.7 µM (inactive) | > 100 µM (inactive) | 74.5 µM (inactive) | > 71.3 µM (inactive)
C[C@@]12C(=O)OC(=O)[C@]1(C)[C@H]1CC[C@@H]2O1 [CANTHARIDIN] | 1.12 µM (inactive) | 0.918 µM (active) | 1.7 µM (inactive) | 1.53 µM (inactive) | 2.3 µM (inactive) | 2.91 µM (inactive) | 9.79 µM (inactive) | 1.34 µM (inactive) | 5.07 µM (inactive) | 0.935 µM (active) | 0.279 µM (active) | 1.37 µM (inactive) | 2.04 µM (inactive) | 1.45 µM (inactive) | 1.1 µM (active) | 2.61 µM (inactive) | 3.84 µM (inactive) | 0.313 µM (active) | 1.41 µM (inactive) | 2.64 µM (inactive)
